The source of these data is publication PMC10840338, “High efficacy of the F-ATP synthase inhibitor TBAJ-5307 against nontuberculous mycobacteria in vitro and in vivo” (The Journal of Biological Chemistry, 2024).

This assay addresses T1, F1FO-ATP synthase (FO domain, subunit c ring with subunit a) (Mycobacteroides abscessus, UniProt B1MLV6+B1MLV7).
T1 construct: gene atpE; native F1FO-ATP synthase in inverted-membrane vesicles of M. subsp. abscessus R variant; with subunit a (atpB); whole complex α3:β3:γ:ε:b-δ:b’:a:c9
The experiment in a line: ATP synthesis inhibition in inverted-membrane vesicles (luminescence). Format: biochemical.

With `COc1cc([C@](O)(CCN(C)C)[C@@H](c2cc3cc(Br)ccc3nc2OC)c2ccnc(OC)c2OC)cc(OC)n1` [TBAJ-5307], half-maximal inhibition (IC50) required 1.4 nM. In other words, the single-digit nanomolar range.

As a reminder, the IC50 is the concentration at which inhibition is half-maximal. High values mean a need for much substance, low ones inhibition by little substance.
